In patent US8821839B2, “Compositions and methods for imparting a sunless tan with a vicinal diamine” (Conopco, Inc., priority 2010, dated 2014):

Assay: Individual Typologic Angle change on synthetic skin for 2.5% DHA plus adjuvant in citric acid/citrate buffer solution
Details: adjuvant at molar equivalent of 1% glycine; for ΔITA ° after 2 hours: pH about 5.5, 2 hours; for ΔITA ° after 4 hours: pH about 5.5, 4 hours
Procedure: The synthetic skin was pre-hydrated at 95% RH for 24 hours and then treated with portions of the samples at a dosage of 5 μL/cm^2. The treated synthetic skin was then stored at 35° C. and 40% RH for periods up to 24 hours. […]
Formulations in Table IV containing 2.5% DHA and the molar equivalent of 1% glycine as adjuvant in a citric acid/citrate buffer solution were prepared. The formulations were adjusted to a pH of about 5.5 to mimic the formulation pH after application to human skin.
Individual Typologic Angle results were obtained in a manner similar to the one described in Example 1.

SMILES	ΔITA ° after 2 hours	ΔITA ° after 4 hours
NCCN [Ethylene diamine]	16 ± 2 °	32 ± 3 °
NCCCCN [1,4-diamino butane]	4 ± 2 °	12 ± 4 °
NC1CCCCC1N (stereo not shown) [1,2-diamino cyclohexane]	20 ± 3 °	35 ± 3 °
NCC(=O)O [Glycine]	2 ± 1 °	7 ± 2 °
NC1C(O)OC(CO)C(O)C1N (stereo not shown) [3,4-diamino-6-hydroxymethyl-tetrahydro-pyrane 2,5-diol]	15 ± 3 °	23 ± 2 °
NCCCN [1,3-diamino propane]	6 ± 3 °	16 ± 4 °
CC(N)CN (stereo not shown) [1,2-diamino propane]	17 ± 2 °	32 ± 3 °
CN(C)CCN [N,N-dimethyl ethylene diamine]	4 ± 2 °	8 ± 2 °
